Source: patent US10556926B2, “Synthetic artificial peptides with antimicrobial effect” (priority 2014, dated 2020)
≈ marks a conversion by molar mass, not a printed value. No end group written: not given here.

Key:
[1] = test system: human histiocytic lymphoma cell line U937; experiment: Cytotoxicity, direct membrane damage (CytoTox 96), LD50; type: cell-based; conditions: U937, two hours at 37° C., 0.25-64 μM
Method in brief: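 Membrane damage in peptide-treated U937 cells measured as LDH release in culture supernatant (30 min substrate, room temperature, dark; absorbance 490 nm). Negative-control signal subtracted and normalized to permeabilization control. LD50 (μM) from sigmoidal fit of relative cytotoxicity (%) versus peptide concentration at 50%.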

E. coli DH5α = conditions: MHB, 18 hours at 37° C.; mean of four test series
Method in brief: (§1)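 Broth microdilution MIC per CLSI/EUCAST, adapted for cationic peptides, in Mueller-Hinton broth. Peptides at final 64 to 0.25 μM (2-fold series) with 5·10^4 bacteria/ml, 18 h at 37° C with shaking; growth read as absorbance at 600 nm.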

Staphylococcus xylosus = conditions: MHB, 18 hours at 37° C.; mean of four test series
Method in brief: as §1

E. coli ML-35p = experiment: Kinetics of permeabilization of the outer bacteria membrane (nitrocefin); type: cell-based, Escherichia coli
Method: The ability of the antimicrobial peptides for the respective permeabilization of the outer and inner bacteria membrane was tested by way of example on E. coli ML-35p (made available by Dr. R. E. Lehrer, Center for Health Sciences, Los Angeles, Calif., USA). The peptides were incubated in serial dilution with E. coli ML-35p and the time-dependent release of cell-internal components was measured in a slightly modified protocol according to Ericsson et al. (2002). For this purpose, the bacteria were cultured in Luria-Bertani (LB) medium with 100 μg/ml ampicillin (Fluka, Taufkirchen, Germany) until reaching an optical density of 0.4 at 600 nm wavelength. Then, the cells were washed three times by centrifugation at 4000 g for 1 min and subsequent up-take in 10 mM HEPES buffer pH 7.2. Finally, the cells were diluted to an optical density of 0.3 at 600 nm wavelength. To measure the permeabilization of the outer membrane, nitrocefin (Merck, Darmstadt, Germany) was diluted in HEPES buffer to a concentration of 60 μg/ml. The antimicrobial peptides were diluted in HEPES buffer to an end concentration of 12 μM, 24 μM, 48 μM and 96 μM end concentration. In the next step, 50 μl of nitrocefin were admixed with 50 μl of antimicrobial peptide and 50 μl of bacteria suspension such that an end concentration of 20 μg/ml of nitrocefin, 4 μM to 32 μM of antimicrobial peptide and bacteria with an optical density of 0.1 to 600 nm were present. The samples were mixed and the absorption at 500 nm wavelength was measured directly over a period of at least 90 min at 37° C. with regular shaking in a FLUOstar omega Microplate Reader (BMG Labtech, Ortenberg, Germany). The investigation of the permeabilization of the inner membrane was carried out in the same way except that instead of the nitrocefin accordingly 0-nitrophenyl-beta-D-galactoside (ONPG, Sigma-Aldrich) in an end concentration of 100 μg/ml was used and the absorption change was determined at a wavelength of 420 nm. The control used was samples without antimicrobial peptide, the positive control used for the membrane permeabilization was polymyxin B (Sigma-Aldrich) in an end concentration of 5 μM. For the data evaluation, firstly the measurement values of the corresponding negative controls were deducted from the measurement values of the samples, and the difference was then divided by the corresponding measurement values of the permeabilization control. Then, a graphical evaluation was carried out, the calculated values being plotted against the peptide concentration and being fitted with the help of the Origin Pro 8.1 G Software (OriginLab) according to a sigmoidal model.
As comparison parameter between the peptides, the times were ascertained from this at which 50% of the final signal level was reached. For this purpose, the equation with the percentage membrane permeabilization y, the time x in minutes, the lower plateau A1, the upper plateau A2, the point of inflection Log X0 and the Hill incline p
[formula] was used. The calculation of the parameters A1, A2, Log X0 and p was performed by the program by reference to the compensating curve. Further resolution of equation 5.1 for the case y=50 then produced for x the desired time at which the half-maximum signal level was reached.

| Molecule | Toxicity LD50 [1] [µM] | MIC E. coli (E. coli DH5α) [µM] | MIC S. xylosus (Staphylococcus xylosus) [µM] | Outer membrane, time to 50% of final signal (E. coli ML-35p; 4 μM peptide) [min] | Outer membrane, time to 50% of final signal (E. coli ML-35p; 8 μM peptide) [min] | Outer membrane, time to 50% of final signal (E. coli ML-35p; 16 μM peptide) [min] | Outer membrane, time to 50% of final signal (E. coli ML-35p; 32 μM peptide) [min] |
| --- | --- | --- | --- | --- | --- | --- | --- |
| ILPWKWPWWPWRR [Indolicidin] | >64 | 4 | 32 | >90 | >90 | >90 | >90 |
| KRKRKILILIKRK-OH [N1] |  | 8 | 0.5 | 21 | 14 | 12 | 11 |
| KILILIKRK-OH [N4] |  | 32 | 16 | 54 | 49 | 31 | 17 |
| CC[C@H](C)[C@H](NC(=O)CN)C(=O)NCC(=O)N[C@@H](C)C(=O)N[C@H](C(=O)N[C@@H](CC(C)C)C(=O)N[C@@H](CCCCN)C(=O)N[C@H](C(=O)N[C@@H](CC(C)C)C(=O)N[C@H](C(=O)N[C@H](C(=O)NCC(=O)N[C@@H](CC(C)C)C(=O)N1CCC[C@H]1C(=O)N[C@@H](C)C(=O)N[C@@H](CC(C)C)C(=O)N[C@H](C(=O)N[C@@H](CO)C(=O)N[C@@H](Cc1c[nH]c2ccccc12)C(=O)N[C@H](C(=O)N[C@@H](CCCCN)C(=O)N[C@@H](CCCNC(=N)N)C(=O)N[C@@H](CCCCN)C(=O)N[C@@H](CCCNC(=N)N)C(=O)N[C@@H](CCC(N)=O)C(=O)N[C@@H](CCC(N)=O)C(N)=O)[C@@H](C)CC)[C@@H](C)CC)[C@@H](C)O)[C@@H](C)O)C(C)C)C(C)C [Melittin] | 1.4 | 8 (≈ 22.8 µg/mL) | 2 (≈ 5.69 µg/mL) |  |  |  |  |
| MPRRRRSSSRPVRRRRRPRVSRRRRRRGGRRR (Protamine) [protamine from salmon, grade IV, histone-free (Sigma-Aldrich)] | >64 | 8 | 0.5 | <1 | <1 | <1 | <1 |
